Biological target: T1, NK1 receptor (Oryctolagus cuniculus, UniProt G1SEI7)
T1 construct: The pulmonary arteries are isolated from the rest of the tissues and cut in half to serve as pairs; from tissue; host or cells: rabbit pulmonary artery rings (male New Zealand white rabbit)
Assay: Rabbit Pulmonary Artery: NK1 in vitro functional assay (Test C)
Type: biochemical
Details: rabbit pulmonary artery rings; antagonism of relaxation by agonist ASMSP; -log molar KB; read-out: NK1 pKb (Test C) (converted)
Protocol: Rabbit Pulmonary Artery: NK1 in vitro functional assay (Test C)
The ability of a Compound of the invention to antagonize the action of the agonist Ac-[Arg^6, Sar^9, Met(O2)^11]
Male New Zealand white rabbits are euthanized via i.v. injection into an ear vein with 60 mg/kg Nembutal (50 mg/ml). Preceding the Nembutal into the vein is Heparin (1000 units/ml) at 0.0025 ml/kg for anticoagulant purposes. The chest cavity is opened from the top of the rib cage to the sternum and the heart, lungs and part of the trachea are removed. The pulmonary arteries are isolated from the rest of the tissues and cut in half to serve as pairs.
The segments are suspended between stainless steel stirrups, so as not to remove any of the endothelium, and placed in water-jacketed (37.0° C.) tissue baths containing physiological salt solution of the following composition (mM): NaCl, 118.0; KCl, 4.7; CaCl2, 1.8; MgCl2, 0.54; NaH2PO4, 1.0; NaHCO3, 25.0; glucose, 11.0; indomethacin, 0.005(to inhibit cyclooxygenase); and dl-Propranolol, 0.001(to block β receptors); gassed continuously with 95% O2-5% CO2. Responses are measured on a Grass polygraph via Grass FT-03 transducers and the electrical signals (data) acquired using a Mi^2 software/hardware system for subsequent conversion to measures of relaxation. […]

T1 sequence (G1SEI7 1-407): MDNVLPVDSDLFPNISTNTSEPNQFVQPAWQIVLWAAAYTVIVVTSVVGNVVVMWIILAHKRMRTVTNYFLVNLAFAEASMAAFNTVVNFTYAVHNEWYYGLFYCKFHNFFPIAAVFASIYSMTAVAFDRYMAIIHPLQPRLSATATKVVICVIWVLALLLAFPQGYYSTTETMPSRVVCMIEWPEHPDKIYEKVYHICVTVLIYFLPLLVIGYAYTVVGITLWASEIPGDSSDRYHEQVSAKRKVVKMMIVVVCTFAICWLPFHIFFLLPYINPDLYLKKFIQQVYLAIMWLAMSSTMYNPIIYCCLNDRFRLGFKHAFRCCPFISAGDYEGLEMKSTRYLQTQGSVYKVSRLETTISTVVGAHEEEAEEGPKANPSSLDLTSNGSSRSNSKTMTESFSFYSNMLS

| Kb | Structure (SMILES) |
| --- | --- |
| 2 nM | COc1c(C#N)cc2ccccc2c1C(=O)N(C)CC(CCN(C)C)c1ccc(Cl)c(Cl)c1 (centres unmarked) [Example 6] |
| 5.01 nM | COc1c(C#N)cc2ccccc2c1C(=O)N(C)CC(CCN1CCOCC1)c1ccc(Cl)c(Cl)c1 (centres unmarked) [Example 4] |
